Assay results taken from patent publication US7265130B2, “NPY Y5 antagonist” (Shionogi & Co., Ltd., priority 1999, dated 2007).

Assays:
[1] = molecular target: T1, human NPY Y5 receptor (Homo sapiens, UniProt Q15761); experiment: cAMP production inhibitory activity in CHO cells; format: cell-based; settings: against 50 nM NPY inhibition of forskolin stimulated cAMP, CHO cells expressing human NPY Y5 receptor
T1 construct: expressed in transfected cells
T1 sequence (Q15761 1-445): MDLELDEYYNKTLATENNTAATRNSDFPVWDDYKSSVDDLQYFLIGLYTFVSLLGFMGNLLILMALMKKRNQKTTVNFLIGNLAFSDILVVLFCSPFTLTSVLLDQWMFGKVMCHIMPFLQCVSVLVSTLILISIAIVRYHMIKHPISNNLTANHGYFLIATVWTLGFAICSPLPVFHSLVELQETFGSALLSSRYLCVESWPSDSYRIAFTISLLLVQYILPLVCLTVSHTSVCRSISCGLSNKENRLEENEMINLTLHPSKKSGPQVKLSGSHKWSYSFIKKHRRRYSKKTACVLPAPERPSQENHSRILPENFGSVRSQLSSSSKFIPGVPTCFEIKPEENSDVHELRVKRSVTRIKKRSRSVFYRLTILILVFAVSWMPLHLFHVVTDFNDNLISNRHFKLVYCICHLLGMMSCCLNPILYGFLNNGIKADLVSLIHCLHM
How it was run: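 Supernatant cAMP quantified by EIA after HCl stop, following 30 min stimulation with 10 μM forskolin and 50 nM NPY. Compound was added 5 min before stimulation to human NPY Y5-expressing CHO cells pretreated 20 min at 37 °C with 2.5 mM isobutylmethylxanthine.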

[2] = molecular target: T1, human NPY Y5 receptor; experiment: Affinity for NPY Y5 receptor ([125I] peptide YY binding, CHO cell membranes); settings: inhibition of specific [125I] peptide YY binding, membranes of CHO cells expressing NPY Y5 receptor
How it was run: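 IC50 is inhibition of specific [125I] peptide YY binding (60 pM final; non-specific defined by 200 nM peptide YY), read by gamma counting after filtration. Binding used stably transfected CHO-cell membranes with compound, 2 hours at 25° C, pH 7.4 HEPES-Hanks/0.1% BSA.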

SMILES	IC50 [1] [nM]	IC50 [2] [nM]
C[C@@H]1CN(c2ccc(NC(=O)C3CCC(NS(=O)(=O)C(C)(C)C)CC3)cc2)C[C@@H](C)O1 (some centres unmarked) [Ia-42]	20	3.6
C[C@@H]1CN(S(=O)(=O)c2ccc(NC(=O)C3CCC(NS(=O)(=O)C(C)(C)C)CC3)cc2)C[C@H](C)O1 (some centres unmarked) [Ia-44]	27	4.8
CCOCCN(CCOCC)c1ccc(NC(=O)C2CCC(NS(=O)(=O)C(C)(C)C)CC2)cc1 (centres unmarked) [Ia-45]	42	4.8
Cc1ccc2nc(-c3ccc(NC(=O)C4CCC(NS(=O)(=O)C(C)(C)C)CC4)cc3)sc2c1 (centres unmarked) [Ia-46]	8.3	0.87
CC(C)[C@@H]1CN(c2ccc(NC(=O)C3CCC(NS(=O)(=O)C(C)(C)C)CC3)cc2)CCO1 (some centres unmarked) [Ia-47]	3.8	0.82
CCC1(CC)CN(c2ccc(NC(=O)C3CCC(NS(=O)(=O)C(C)(C)C)CC3)cc2)CCO1 (centres unmarked) [Ia-48]	6.1	1.2
CC(C)S(=O)(=O)NC1CCC(C(=O)Nc2ccc(N3C[C@@H](C)O[C@@H](C)C3)c(F)c2)CC1 (some centres unmarked) [Ia-49]	83	2.6
CC(C)(C)S(=O)(=O)NC1CCC(C(=O)Nc2ccc(N3CCC(=O)CC3)cc2)CC1 (centres unmarked) [Ia-52]	22	1.9
C[C@@H]1CN(S(=O)(=O)c2cccc(NC(=O)C3CCC(NS(=O)(=O)C(C)(C)C)CC3)c2)C[C@H](C)O1 (some centres unmarked) [Ia-55]	27	1.1
CC(C)(O)c1ccc(NC(=O)C2CCC(NS(=O)(=O)C(C)(C)C)CC2)cc1 (centres unmarked) [Ia-56]	96	2.3
CC(C)(C)S(=O)(=O)Nc1ccc(NC(=O)C2CCC(NS(=O)(=O)C(C)(C)C)CC2)cc1 (centres unmarked) [Ia-58]	110	2.5
CC(=O)c1cc2cc(NC(=O)C3CCC(NS(=O)(=O)C(C)(C)C)CC3)ccc2oc1=O (centres unmarked) [Ia-60]	10	0.95
CN1C(=O)c2ccc(NC(=O)C3CCC(NS(=O)(=O)C(C)(C)C)CC3)cc2C1=O (centres unmarked) [Ia-61]	19	0.68
CC(C)(C)S(=O)(=O)NC1CCC(C(=O)Nc2ccc(NS(C)(=O)=O)cc2)CC1 (centres unmarked) [Ia-63]	370	3.9
CC(C)(C)S(=O)(=O)NC1CCC(C(=O)Nc2ccc(N3CCC(O)(c4ccc(Cl)cc4)CC3)cc2)CC1 (centres unmarked) [Ia-65]	11	1.1
CC(C)(C)S(=O)(=O)NC1CCN(C(=O)Nc2ccc3oc(=O)ccc3c2)CC1 [Ia-68]	180	9.5
CC(C)(C)S(=O)(=O)NCCCCC(=O)Nc1ccc2oc(=O)ccc2c1 [Ia-78]	150	2
CC(C)S(=O)(=O)N[C@H]1CC[C@H](C(=O)Nc2ccc3c(c2)C(=O)N(c2ccccc2)C3=O)CC1 [Ia-80]	3	0.44

SMILES	IC50 [1] [nM]	IC50 [2] [nM]
CC(C)(C)S(=O)(=O)NCCCCC(=O)Nc1ccc2c(c1)C(=O)N(c1ccccc1)C2=O [Ia-81]	4.5	2.7
C[C@@H]1CN(c2ccc(NC(=O)CCCCNS(=O)(=O)C(C)(C)C)c(F)c2)C[C@H](C)O1 [Ia-83]	53	1.2
CC(C)S(=O)(=O)NC1CCC(C(=O)Nc2ccc(N3CCC(O)(c4ccc(Cl)cc4)CC3)cc2)CC1 (centres unmarked) [Ia-84]	13	0.25
CC(C)(C)S(=O)(=O)NCCCCC(=O)Nc1ccc(N2CCC(O)(c3ccc(Cl)cc3)CC2)cc1 [Ia-85]	14	0.22
CC(C)S(=O)(=O)NCCCCC(=O)Nc1ccc(N2CCC(O)(c3ccc(Cl)cc3)CC2)cc1 [Ia-86]	11	0.73
CC(C)S(=O)(=O)NC1CCC(C(=O)Nc2ccc3c(c2)C(=O)N(C)C3=O)CC1 (centres unmarked) [Ia-87]	61	0.49
CC(C)S(=O)(=O)NC1CCC(C(=O)Nc2ccc3c(c2)OCO3)CC1 (centres unmarked) [Ia-88]	48	0.62
CN1C(=O)c2ccc(NC(=O)CCCCNS(=O)(=O)C(C)(C)C)cc2C1=O [Ia-91]	150	4
CC(C)(C)S(=O)(=O)NC1CCC(C(=O)Nc2cccc3c2CCCC3)CC1 (centres unmarked) [Ia-111]	28	5.1
CC(C)(C)S(=O)(=O)Nc1ccc(C(=O)Nc2ccc3c(c2)CCC3)cc1 [Ia-125]	46	4.1
CC(C)(C)S(=O)(=O)Nc1ccc(C(=O)Nc2ccc3c(c2)OCCO3)cc1 [Ia-127]	160	6.1
CC(C)(C)S(=O)(=O)NC1CCC(C(=O)Nc2cccc(C(F)(F)F)c2)CC1 (centres unmarked) [Ia-129]	26	1.3
CC(C)(C)S(=O)(=O)Nc1ccc(C(=O)Nc2ccc3ccsc3c2)cc1 [Ia-131]	17	1.3
CC(C)NC(=O)c1cccc(NC(=O)c2ccc(NS(=O)(=O)C(C)(C)C)cc2)c1 [Ia-132]	76	2.8
CC(C)(C)S(=O)(=O)Nc1ccc(C(=O)Nc2ccc3sccc3c2)cc1 [Ia-133]	8.8	1.7
CC(C)(C)S(=O)(=O)NC1CCC(C(=O)Nc2cc(F)cc(F)c2)CC1 (centres unmarked) [Ia-136]	13	1.6
CC(C)S(=O)(=O)NC1CCC(C(=O)Nc2ccc3c(c2)CCC3)CC1 (centres unmarked) [Ia-141]	5.7	1
CC(C)(C)S(=O)(=O)Nc1ccc(C(=O)Nc2ccc(-c3ccccc3)cc2)cc1 [Ia-158]	1.7	0.71

The next lines start with the values.

IC50 [1] [nM]	IC50 [2] [nM]	SMILES
9	2.5	CC(C)(C)S(=O)(=O)NC1CCC(C(=O)Nc2cccc(Cl)c2)CC1 (centres unmarked) [Ia-41]
8.1	0.22	CC(C)(C)S(=O)(=O)NC1CCC(C(=O)Nc2ccc(C(=O)c3ccccc3)cc2)CC1 (centres unmarked) [Ia-53]
31	0.93	CC(O)(c1ccccc1)c1ccc(NC(=O)C2CCC(NS(=O)(=O)C(C)(C)C)CC2)cc1 (centres unmarked) [Ia-57]
16	0.71	CC(C)(C)S(=O)(=O)NC1CCC(C(=O)Nc2cnc(-c3ccccc3)cn2)CC1 (centres unmarked) [Ia-59]
96	7.1	CC(C)(C)S(=O)(=O)NC1CCC(C(=O)Nc2ccc(NS(=O)(=O)c3ccccc3)cc2)CC1 (centres unmarked) [Ia-64]
3.2	0.59	CC(C)(C)S(=O)(=O)NC1CCC(C(=O)Nc2nnc(-c3ccccc3)s2)CC1 (centres unmarked) [Ia-66]
33	2.7	Cn1nnnc1-c1ccc(NC(=O)[C@H]2CC[C@H](NS(=O)(=O)C(C)(C)C)CC2)cc1 [Ia-69]
31	1.5	CC(C)(C)S(=O)(=O)NC1CCN(C(=O)Nc2cnc(-c3ccccc3)cn2)CC1 [Ia-70]
12	1.3	CC(C)(C)S(=O)(=O)N[C@H]1CC[C@H](C(=O)Nc2ccc(-c3nnnn3-c3ccccc3)cc2)CC1 [Ia-71]
24	1.9	CC(C)(C)S(=O)(=O)NC1CCC(C(=O)Nc2ccc3scnc3c2)CC1 (centres unmarked) [Ia-106]
1.3	0.14	CC(C)(C)S(=O)(=O)NC1CCC(C(=O)Nc2ccc(-c3ccccc3)cc2)CC1 (centres unmarked) [Ia-107]
3.9	0.6	CC(C)(C)S(=O)(=O)NC1CCC(C(=O)Nc2cccc3c2Cc2ccccc2-3)CC1 (centres unmarked) [Ia-109]
1.1	0.3	CC(C)(C)S(=O)(=O)NC1CCC(C(=O)Nc2ccc(N3CC=CC3)cc2)CC1 (centres unmarked) [Ia-110]
3	0.21	CC(C)(C)S(=O)(=O)NC1CCC(C(=O)Nc2ccc3ccsc3c2)CC1 (centres unmarked) [Ia-130]
49	8.2	CC(C)(C)S(=O)(=O)NC1CCC(C(=O)Nc2ccc(F)cc2F)CC1 (centres unmarked) [Ia-135]
28	2.2	CC(C)(C)S(=O)(=O)NC1CCC(C(=O)Nc2ccc(F)c(F)c2)CC1 (centres unmarked) [Ia-138]
